From patent US20250296959A1, “B7-H3 TARGETING PEPTIDES AND CONSTRUCTS THEREOF” (Mariana Oncology Inc., priority 2024, published 2025)
Where two headings read alike, the source gives them in different places. Starred links: 1 amine or outer side, 2 acyl side, 3 side chain; linkers in the order of their positions; H or OH if unused. Positions of bridges follow the written chain, without caps; N, C: chain ends. Non-standard residues stand in square brackets, D forms with d. Residues, ends and D or L forms follow the SMILES beside them. Groups on a side chain read outwards from the residue. *: point of attachment. X2 = O=C(O)CN1CCN(CC(=O)O)CCN(CC(=O)NCCOCCOCCOCCOCC(=O)*)CCN(CC(=O)O)CC1; Ala(1-CH2CO2H-4-piperidyl) = N[C@@H](CC1CCN(CC(=O)O)CC1)C(=O)O; Ala(piperidin-4-yl) = O=C([C@H](CC1CCN([*:3])CC1)N[*:1])[*:2]; DOTA = O=C(O)CN1CCN(CC(=O)O)CCN(CC(=O)*)CCN(CC(=O)O)CC1; Phe(4-NHCONH2) = NC(=O)Nc1ccc(C[C@H](N)C(=O)O)cc1; Trp(5-F) = N[C@@H](Cc1c[nH]c2ccc(F)cc12)C(=O)O; X1 = C[C@@H](c1ccccc1)[C@H](N[*:1])C(=O)[*:2]; γGlu = O=C(O)[C@H](CCC(=O)[*:2])N[*:1]; 1Nal = N[C@@H](Cc1cccc2ccccc12)C(=O)O; Ala(4-THP) = N[C@@H](CC1CCOCC1)C(=O)O; Val(3-OH) = CC(C)(O)[C@H](N)C(=O)O; 4Pal = N[C@@H](Cc1ccncc1)C(=O)O; aThr = C[C@H](O)[C@H](N)C(=O)O; PEG4 = NCCOCCOCCOCCOCCC(=O)O; Tle = CC(C)(C)[C@H](N)C(=O)O; hLeu = CC(C)CC[C@H](N)C(=O)O; Ms = CS(=O)(=O)*

Columns and labels:
[1] = system: Calu-6 cell line; test: Cell associated (bound) fraction of [177Lu]Lu-labeled peptide in Calu-6 cells; type: cell-based, Human; conditions: 1 hour, 37° C.
Procedure, shortened: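 Detached B7-H3-expressing human lung cancer cells at 5 million/mL were exposed for 1 hour at 37 °C to 0.8 μCi of the 177Lu-labelled peptide, which was formulated in 1% PBSA after labelling at 80 °C, pH ~5. Supernatant and two cold washes counted as unbound, and resuspended cells gamma-counted as the cell-associated fraction.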

[2] = target: T1, human 4lg B7-H3 (Homo sapiens, UniProt Q5ZPR3); test: Affinity determination by surface plasmon resonance (SPR) to 4Ig B7-H3; conditions: 4Ig B7-H3
T1 sequence (Q5ZPR3 29-534): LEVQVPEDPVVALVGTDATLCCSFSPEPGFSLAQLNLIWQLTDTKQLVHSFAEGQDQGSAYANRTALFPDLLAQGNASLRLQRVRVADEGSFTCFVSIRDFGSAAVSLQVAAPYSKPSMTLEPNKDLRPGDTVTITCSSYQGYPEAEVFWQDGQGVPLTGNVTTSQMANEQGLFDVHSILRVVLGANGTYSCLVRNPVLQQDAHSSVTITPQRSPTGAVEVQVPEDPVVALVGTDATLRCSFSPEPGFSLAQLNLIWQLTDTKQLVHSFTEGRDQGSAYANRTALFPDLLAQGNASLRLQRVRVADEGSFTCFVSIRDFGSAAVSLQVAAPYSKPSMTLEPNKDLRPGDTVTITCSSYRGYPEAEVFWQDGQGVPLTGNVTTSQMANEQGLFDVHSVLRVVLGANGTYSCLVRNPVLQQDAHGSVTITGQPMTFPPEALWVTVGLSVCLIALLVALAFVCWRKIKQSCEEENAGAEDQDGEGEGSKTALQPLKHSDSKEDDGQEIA

[3] = system: Calu-6 cell line; test: Net internalization of [177Lu]Lu-labeled peptide in Calu-6 cells; type: cell-based, Human; conditions: 1 hour, 37° C., glycine pH 2.5 acid wash
Procedure, shortened: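 Calu-6 cells, human non-engineered lung cancer expressing B7-H3, resuspended in 1% PBSA at 5 million cells/mL and incubated with the 177Lu-labeled conjugate (labeled at 80 °C, pH ~5, RP-HPLC checked). Gamma counting of the bound fraction, then of the pellet after two glycine pH 2.5 acid strips and NaOH lysis, gives internalized activity.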

[4] = read-out: SPR KD—25° C., 25° C. flow cell temperature
[5] = read-out: SPR KD—37° C., 37° C. flow cell temperature
[6] = SPR KD—25° C., 25° C. flow cell temperature

Row | Structure (SMILES) | % cell associated fraction [1] | Kd [2, 4] [nM] | % net internalization [3] | Kd [2, 5] [nM] | Kd [2, 6] [nM]
1 | CC(=O)N[C@@H](CCC(C)C)C(=O)N[C@@H](Cc1ccc(O)cc1)C(=O)N[C@H]1CSSC[C@@H](C(=O)N[C@@H](Cc2c[nH]c3ccc(F)cc23)C(=O)N[C@@H](Cc2ccccc2)C(=O)N[C@H](C(=O)N[C@H](CCCCNC(=O)CN2CCN(CC(=O)O)CCN(CC(=O)O)CCN(CC(=O)O)CC2)C(N)=O)[C@H](C)O)NC(=O)[C@H](Cc2ccc(O)cc2)NC(=O)[C@H](C(C)C)NC(=O)[C@H](CC(=O)O)NC(=O)[C@H](Cc2ccc(O)cc2)NC(=O)[C@H](CCCCN)NC(=O)CNC(=O)[C@H](C(C)C)NC1=O [compound 162, Ac-hLeu-Y-C-V-G-K-Y-D-V-Y-C-5FW-F-alloThr-dLys(DOTA)-CONH2] (Ac-[hLeu]YCVGKYDVYC[Trp(5-F)]F[aThr][dK](DOTA)-NH2; disulfide 3-11) | B (25<%≤50) | < 1 | A (%≤25) |  | 
2 | CC(=O)N[C@@H](CCC(C)C)C(=O)N[C@@H](Cc1ccc(O)cc1)C(=O)N[C@H]1CSSC[C@@H](C(=O)N[C@@H](Cc2c[nH]c3ccc(F)cc23)C(=O)N[C@H](C(=O)N[C@H](C(=O)N[C@H](CCCCNC(=O)CN2CCN(CC(=O)O)CCN(CC(=O)O)CCN(CC(=O)O)CC2)C(=O)O)C(C)(C)O)[C@@H](C)c2ccccc2)NC(=O)[C@H](Cc2ccc(O)cc2)NC(=O)[C@H](C(C)C)NC(=O)[C@H](CC(=O)O)NC(=O)[C@H](CC2CCOCC2)NC(=O)[C@H](CC2CCN(CC(=O)O)CC2)NC(=O)CNC(=O)[C@H](C(C)(C)C)NC1=O [compound 497, Ac-hLeu-Y-C-Tbg-G-Pip(CH2COOH)Ala-ThpA-D-V-Y-C-5FW-[(2S, 3S)beta-Me-Phe]-hydroxyVal-dLys(DOTA)-COOH] (Ac-[hLeu]YC[Tle]G[Ala(1-CH2CO2H-4-piperidyl)][Ala(4-THP)]DVYC[Trp(5-F)][X1][Val(3-OH)][dK](DOTA)-OH; disulfide 3-11) | C (%>50) |  | A (%≤25) | < 1 | 
3 | CC(C)CC[C@H](NS(C)(=O)=O)C(=O)N[C@@H](Cc1ccc(O)cc1)C(=O)N[C@H]1CSSC[C@@H](C(=O)N[C@@H](Cc2c[nH]c3ccc(F)cc23)C(=O)N[C@@H](Cc2ccccc2)C(=O)N[C@H](C(=O)N[C@H](CCCCNC(=O)CN2CCN(CC(=O)O)CCN(CC(=O)O)CCN(CC(=O)O)CC2)C(=O)O)C(C)(C)O)NC(=O)[C@H](Cc2ccc(O)cc2)NC(=O)[C@H](C(C)C)NC(=O)[C@H](CC(=O)O)NC(=O)[C@H](CC2CCOCC2)NC(=O)[C@H](CC2CCNCC2)NC(=O)CNC(=O)[C@H](C(C)(C)C)NC1=O [Cpd #437, MeSO2-hLeu-Y-C-Tbg-G-PipAla-ThpA-D-V-Y-C-5FW-F-hydroxyVal-dLys(DOTA)-COOH] (Ms-[hLeu]YC[Tle]G[Ala(piperidin-4-yl)][Ala(4-THP)]DVYC[Trp(5-F)]F[Val(3-OH)][dK](DOTA)-OH; disulfide 3-11) | B (25<%≤50) |  | A (%≤25) | < 1 | 
4 | CC(=O)N[C@@H](CCC(C)C)C(=O)N[C@@H](Cc1ccc(O)cc1)C(=O)N[C@H]1CSSC[C@@H](C(=O)N[C@@H](Cc2c[nH]c3ccc(F)cc23)C(=O)N[C@@H](Cc2ccccc2)C(=O)N[C@H](C(=O)N[C@H](CCCCNC(=O)CN2CCN(CC(=O)O)CCN(CC(=O)O)CCN(CC(=O)O)CC2)C(=O)O)C(C)(C)O)NC(=O)[C@H](Cc2ccc(NC(N)=O)cc2)NC(=O)[C@H](C(C)C)NC(=O)[C@H](CC(=O)O)NC(=O)[C@H](CC2CCOCC2)NC(=O)[C@H](CC2CCNCC2)NC(=O)CNC(=O)[C@H](C(C)(C)C)NC1=O [compound 427, Ac-hLeu-Y-C-Tbg-G-PipAla-ThpA-D-V-Aph(Cbm)-C-5FW-F-hydroxyVal-dLys(DOTA)-COOH] (Ac-[hLeu]YC[Tle]G[Ala(piperidin-4-yl)][Ala(4-THP)]DV[Phe(4-NHCONH2)]C[Trp(5-F)]F[Val(3-OH)][dK](DOTA)-OH; disulfide 3-11) | C (%>50) |  | B (25<%≤50) | < 1 | 
5 | CC(=O)N[C@@H](CCC(C)C)C(=O)N[C@@H](Cc1ccc(O)cc1)C(=O)N[C@H]1CSSC[C@@H](C(=O)N[C@@H](Cc2cccc3ccccc23)C(=O)N[C@@H](Cc2ccccc2)C(=O)N2CCC[C@H]2C(N)=O)NC(=O)[C@H](Cc2ccc(O)cc2)NC(=O)[C@H](C(C)C)NC(=O)[C@H](CC(=O)O)NC(=O)[C@H](Cc2ccncc2)NC(=O)[C@H](CCCCNC(=O)CC[C@H](NC(=O)CC[C@H](NC(=O)CN2CCN(CC(=O)O)CCN(CC(=O)O)CCN(CC(=O)O)CC2)C(=O)O)C(=O)O)NC(=O)CNC(=O)[C@H](C(C)(C)C)NC1=O [compound 253, Ac-hLeu-Y-C-Tbg-G-Lys(gE-gE-DOTA)-4PyA-D-V-Y-C-1Nal-F-Pro-CONH2] (Ac-[hLeu]YC[Tle]GK([γGlu-γGlu-DOTA])[4Pal]DVYC[1Nal]FP-NH2; disulfide 3-11) | A (%≤25) |  | A (%≤25) |  | 1 to 10
6 | CC(=O)N[C@@H](CCC(C)C)C(=O)N[C@@H](Cc1ccc(O)cc1)C(=O)N[C@H]1CSSC[C@@H](C(=O)N[C@@H](Cc2c[nH]c3ccc(F)cc23)C(=O)N[C@@H](Cc2ccccc2)C(=O)N[C@H](C(=O)N[C@H](CCCCNC(=O)CN2CCN(CC(=O)O)CCN(CC(=O)O)CCN(CC(=O)O)CC2)C(N)=O)[C@@H](C)O)NC(=O)[C@H](Cc2ccc(O)cc2)NC(=O)[C@H](C(C)C)NC(=O)[C@H](CC(=O)O)NC(=O)[C@H](Cc2ccc(O)cc2)NC(=O)[C@H](CCCCN)NC(=O)CNC(=O)[C@H](C(C)C)NC1=O [compound 73, Ac-hLeu-Y-C-V-G-K-Y-D-V-Y-C-5FW-F-Thr-dLys(DOTA)-CONH2] (Ac-[hLeu]YCVGKYDVYC[Trp(5-F)]FT[dK](DOTA)-NH2; disulfide 3-11) | C (%>50) | < 1 | A (%≤25) |  | 
7 | CC(=O)N[C@@H](CCC(C)C)C(=O)N[C@@H](Cc1ccc(O)cc1)C(=O)N[C@H]1CSSC[C@@H](C(=O)N[C@@H](Cc2c[nH]c3ccc(F)cc23)C(=O)N[C@@H](Cc2ccccc2)C(=O)N[C@H](C(=O)N[C@H](CCC(=O)O)C(N)=O)C(C)(C)O)NC(=O)[C@H](Cc2ccc(O)cc2)NC(=O)[C@H](C(C)C)NC(=O)[C@H](CC(=O)O)NC(=O)[C@H](CC2CCN(C(=O)CCOCCOCCOCCOCCNC(=O)CN3CCN(CC(=O)O)CCN(CC(=O)O)CCN(CC(=O)O)CC3)CC2)NC(=O)[C@H](CC2CCNCC2)NC(=O)CNC(=O)[C@H](C(C)(C)C)NC1=O [compound 444, Ac-hLeu-Y-C-Tbg-G-PipAla-Pip(PEG4-DOTA)Ala-D-V-Y-C-5FW-F-hydroxyVal-dGlu-CONH2] (Ac-[hLeu]YC[Tle]G[Ala(piperidin-4-yl)][Ala(piperidin-4-yl)]([PEG4-DOTA])DVYC[Trp(5-F)]F[Val(3-OH)][dE]-NH2; disulfide 3-11) | B (25<%≤50) |  | A (%≤25) | < 1 | 
8 | CC(=O)N[C@@H](CCC(C)C)C(=O)N[C@@H](Cc1ccc(O)cc1)C(=O)N[C@H]1CSSC[C@@H](C(=O)N[C@@H](Cc2cccc3ccccc23)C(=O)N[C@@H](Cc2ccccc2)C(=O)N2CCC[C@H]2C(N)=O)NC(=O)[C@H](Cc2ccc(O)cc2)NC(=O)[C@H](C(C)C)NC(=O)[C@H](CC(=O)O)NC(=O)[C@H](Cc2ccncc2)NC(=O)[C@H](CCCCNC(=O)COCCOCCOCCOCCNC(=O)CN2CCN(CC(=O)O)CCN(CC(=O)O)CCN(CC(=O)O)CC2)NC(=O)CNC(=O)[C@H](C(C)(C)C)NC1=O [compound 256, Ac-hLeu-Y-C-Tbg-G-Lys(PEG4-DOTA)-4PyA-D-V-Y-C-1Nal-F-Pro-CONH2] (Ac-[hLeu]YC[Tle]GK(X2)[4Pal]DVYC[1Nal]FP-NH2; disulfide 3-11) | A (%≤25) |  | A (%≤25) |  | 1 to 10
9 | CC(=O)N[C@@H](CCC(C)C)C(=O)N[C@@H](Cc1ccc(O)cc1)C(=O)N[C@H]1CSSC[C@@H](C(=O)N[C@@H](Cc2c[nH]c3ccc(F)cc23)C(=O)N[C@@H](Cc2ccccc2)C(=O)N[C@H](C(=O)N[C@H](CCCCNC(=O)CN2CCN(CC(=O)O)CCN(CC(=O)O)CCN(CC(=O)O)CC2)C(N)=O)[C@@H](C)O)NC(=O)[C@H](Cc2ccc(O)cc2)NC(=O)[C@H](C(C)C)NC(=O)[C@H](CC(=O)O)NC(=O)[C@H](Cc2ccc(O)cc2)NC(=O)[C@H](CCCCN)NC(=O)CNC(=O)[C@H](C(C)(C)C)NC1=O [compound 76, Ac-hLeu-Y-C-Tbg-G-K-Y-D-V-Y-C-5FW-F-Thr-dLys(DOTA)-CONH2] (Ac-[hLeu]YC[Tle]GKYDVYC[Trp(5-F)]FT[dK](DOTA)-NH2; disulfide 3-11) | C (%>50) | < 1 | A (%≤25) |  | 
